# pEC50: −log10 of the molar value. Read-outs that look alike come from different tables or passages of the source.
# Experiments:
# [1] = tested on: liver cancer (3 cell lines); experiment: CellTiter-Glo Viability Assay, liver cancer; format: cell-based; details: Homo sapiens, inhibition of cancer cell proliferation
# CLK2 = target: T1, CLK2 (Homo sapiens, UniProt P49760); experiment: CLK2 kinase activity assay (Z-lyte, Ser/Thr 6 peptide); format: biochemical; details: recombinant CLK2 kinase, ATP 60 μM; read-out: EC50
# T1 construct: purchased Thermo Fisher (Life Technologies), Z'-LYTE Kinase Assay Kits
# Procedure: All reactions were performed in duplicate.
# [2] = tested on: colorectal cancer (6 cell lines); experiment: CellTiter-Glo Viability Assay, colorectal cancer; format: cell-based; details: Homo sapiens, inhibition of cancer cell proliferation
# [3] = tested on: haematopoietic & lymphoid tumors (13 cell lines); experiment: CellTiter-Glo Viability Assay, haematopoietic & lymphoid tumors; format: cell-based; details: Homo sapiens, inhibition of cancer cell proliferation
# all 50 cell lines = experiment: CellTiter-Glo Viability Assay, average across all cell lines; format: cell-based; details: Homo sapiens; across all 50 cell lines; read-out: average EC50 for inhibition of cancer cell proliferation
# In short: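 Human cancer cell lines from breast, colorectal, haematopoietic/lymphoid, liver, lung, ovarian, pancreatic and prostate tumours were seeded at 300-3,000 cells/well and exposed to compound in duplicate for four days at 37° C, 5% CO2. Viable cells were measured by ATP luminescence; EC50 values came from dose-response curves.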
# BT-549 = experiment: CellTiter-Glo Viability Assay, breast cancer; format: cell-based; details: Homo sapiens, 96 h; BT-549, breast cancer, four days; read-out: EC50
# ZR-75-1 = experiment: CellTiter-Glo Viability Assay, breast cancer; format: cell-based; details: Homo sapiens, 96 h; ZR-75-1, breast cancer, four days; read-out: EC50
# CAMA1 = experiment: CellTiter-Glo Viability Assay, breast cancer; format: cell-based; details: Homo sapiens, CAMA-1, 96 h; CAMA1, breast cancer, four days; read-out: EC50
# MDA-MB-231-Luc = experiment: CellTiter-Glo Viability Assay, breast cancer; format: cell-based; details: Homo sapiens, 96 h; MDA-MB-231-Luc, breast cancer, four days; read-out: EC50
# HCC1599 = experiment: CellTiter-Glo Viability Assay, breast cancer; format: cell-based; details: Homo sapiens, 96 h; HCC1599, breast cancer, four days; read-out: EC50
# T47D = experiment: CellTiter-Glo Viability Assay, breast cancer; format: cell-based; details: Homo sapiens, 96 h, breast cancer, four days, read-out: EC50
# MCF7 = experiment: CellTiter-Glo Viability Assay, breast cancer; format: cell-based; details: Homo sapiens, 96 h; MCF7, breast cancer, four days; read-out: EC50
# DU4475 = experiment: CellTiter-Glo Viability Assay, breast cancer; format: cell-based; details: Homo sapiens, DU-4475, 96 h; DU4475, breast cancer, four days; read-out: EC50
# [4] = tested on: prostate cancer (5 cell lines); experiment: CellTiter-Glo Viability Assay, prostate cancer; format: cell-based; details: Homo sapiens
# [5] = tested on: ovarian cancer (4 cell lines); experiment: CellTiter-Glo Viability Assay, ovarian cancer; format: cell-based; details: Homo sapiens, inhibition of cancer cell proliferation
# CLK3 = CLK3 (Homo sapiens, UniProt P49761); experiment: CLK3 kinase activity assay (Z-lyte, Ser/Thr 18 peptide)
# [6] = tested on: pancreatic cancer (8 cell lines); experiment: CellTiter-Glo Viability Assay, pancreatic cancer; format: cell-based; details: Homo sapiens, inhibition of cancer cell proliferation
# [7] = tested on: lung cancer (4 cell lines); experiment: CellTiter-Glo Viability Assay, lung cancer; format: cell-based; details: Homo sapiens, inhibition of cancer cell proliferation
# T1 sequence (P49760 whole entry): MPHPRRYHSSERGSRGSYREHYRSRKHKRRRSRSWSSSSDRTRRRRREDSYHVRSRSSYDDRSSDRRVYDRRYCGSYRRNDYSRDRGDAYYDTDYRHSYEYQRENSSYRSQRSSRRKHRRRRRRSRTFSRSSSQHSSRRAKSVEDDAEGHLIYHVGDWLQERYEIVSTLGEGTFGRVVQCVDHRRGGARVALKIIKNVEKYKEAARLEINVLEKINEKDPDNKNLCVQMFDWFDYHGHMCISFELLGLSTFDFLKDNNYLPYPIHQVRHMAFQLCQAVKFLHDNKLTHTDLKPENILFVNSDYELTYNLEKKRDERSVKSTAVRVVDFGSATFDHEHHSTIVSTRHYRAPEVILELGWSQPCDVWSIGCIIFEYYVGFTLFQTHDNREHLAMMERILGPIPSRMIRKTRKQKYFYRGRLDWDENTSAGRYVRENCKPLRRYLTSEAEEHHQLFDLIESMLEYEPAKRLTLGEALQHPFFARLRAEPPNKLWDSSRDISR
# CLK3, sequence (P49761 whole entry): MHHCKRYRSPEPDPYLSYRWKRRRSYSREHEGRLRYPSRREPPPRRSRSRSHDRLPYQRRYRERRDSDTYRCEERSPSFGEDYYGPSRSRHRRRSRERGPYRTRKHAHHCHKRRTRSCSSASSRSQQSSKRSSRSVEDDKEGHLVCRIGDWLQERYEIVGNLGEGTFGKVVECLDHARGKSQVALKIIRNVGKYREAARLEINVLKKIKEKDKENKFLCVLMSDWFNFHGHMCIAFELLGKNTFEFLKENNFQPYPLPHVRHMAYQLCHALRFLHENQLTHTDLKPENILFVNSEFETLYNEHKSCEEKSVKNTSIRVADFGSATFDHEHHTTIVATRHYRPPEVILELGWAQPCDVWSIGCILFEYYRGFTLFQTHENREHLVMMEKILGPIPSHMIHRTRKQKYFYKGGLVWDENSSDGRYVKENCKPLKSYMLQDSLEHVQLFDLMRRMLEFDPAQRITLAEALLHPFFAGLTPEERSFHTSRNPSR
structure (smiles),measurement,setting,value
O=C1COc2cccc(c2)-c2cncc3[nH]c(nc23)-c2n[nH]c3ccc(cc23)-c2cncc(c2)N1 [Compound 56],pEC50,"[1]; SNU-398, SNU398 cell line, read-out: Liver cancer, EC50 SNU398",6.80
same,pEC50,"[1]; HEPG2 cell line, read-out: Liver cancer, EC50 HEPG2",< 5.00
same,pEC50,"[1]; PLC/PRF/5 cell line, read-out: Liver cancer, EC50 PLC/PRF/5",< 5.00
same,pEC50,CLK2,8.48
same,EC50,"[2]; HCT-116, HCT116 cell line, read-out: Colorectal cancer, EC50 (μM) HCT116",3.81 µM
same,EC50,"[2]; HT-29, HT29 cell line, read-out: Colorectal cancer, EC50 (μM) HT29",> 10 µM
same,EC50,"[2]; SW-620, SW620 cell line, read-out: Colorectal cancer, EC50 (μM) SW620",1.09 µM
same,EC50,"[2]; DLD-1 cell line, read-out: Colorectal cancer, EC50 (μM) DLD-1",9.99 µM
same,EC50,"[2]; SW48 cell line, read-out: Colorectal cancer, EC50 (μM) SW48",5.05 µM
same,EC50,"[2]; SW480 cell line, read-out: Colorectal cancer, EC50 (μM) SW480",1.38 µM
same,EC50,"[3]; DND41, DND-41 cell line, read-out: Haematopoietic & Lymphoid tumors, EC50 (μM) DND-41",0.959 µM
same,EC50,"[3]; MV4-11, MV-4-11 cell line, read-out: Haematopoietic & Lymphoid tumors, EC50 (μM) MV-4-11",0.121 µM
same,EC50,"[3]; Rec1, REC-1 cell line, read-out: Haematopoietic & Lymphoid tumors, EC50 (μM) REC-1",5.51 µM
same,EC50,"[3]; SU-DHL-4, SUDHL4 cell line, read-out: Haematopoietic & Lymphoid tumors, EC50 (μM) SUDHL4",0.365 µM
same,EC50,"[3]; HL-60 cell line, read-out: Haematopoietic & Lymphoid tumors, EC50 (μM) HL-60",3.21 µM
same,EC50,"[3]; JM1 cell line, read-out: Haematopoietic & Lymphoid tumors, EC50 (μM) JM1",0.394 µM
same,EC50,"[3]; JURKAT, Clone E6-1 cell line, read-out: Haematopoietic & Lymphoid tumors, EC50 (μM) JURKAT, Clone E6-1",> 10 µM
same,EC50,"[3]; JeKo-1 cell line, read-out: Haematopoietic & Lymphoid tumors, EC50 (μM) JeKo-1",0.39 µM
same,EC50,"[3]; KASUMI-1 cell line, read-out: Haematopoietic & Lymphoid tumors, EC50 (μM) KASUMI-1",0.767 µM
same,EC50,"[3]; Loucy cell line, read-out: Haematopoietic & Lymphoid tumors, EC50 (μM) Loucy",0.485 µM
same,EC50,"[3]; MOLT-4 cell line, read-out: Haematopoietic & Lymphoid tumors, EC50 (μM) MOLT-4",> 10 µM
same,EC50,"[3]; TF-1 cell line, read-out: Haematopoietic & Lymphoid tumors, EC50 (μM) TF-1",> 10 µM
same,EC50,"[3]; TOLEDO cell line, read-out: Haematopoietic & Lymphoid tumors, EC50 (μM) TOLEDO",0.402 µM
same,pEC50,all 50 cell lines,5.30
same,pEC50,BT-549,6.48
same,pEC50,ZR-75-1,5.16
same,pEC50,CAMA1,5.82
same,pEC50,MDA-MB-231-Luc,5.18
same,pEC50,HCC1599,6.61
same,pEC50,T47D,5.49
same,pEC50,MCF7,< 5.00
same,pEC50,DU4475,7.38
same,pEC50,"[4]; DU-145, read-out: Prostate cancer EC50 Du-145",< 5.00
same,pEC50,"[4]; PC-3, PC3 cell line, inhibition of cancer cell proliferation, read-out: Prostate cancer EC50 PC3",5.47
same,pEC50,"[4]; 22Rv1 cell line, inhibition of cancer cell proliferation, read-out: Prostate cancer EC50 22Rv1",5.10
same,pEC50,"[4]; LNCap clone FGC cell line, inhibition of cancer cell proliferation, read-out: Prostate cancer EC50 LNCap clone FGC",< 5.00
same,pEC50,"[4]; VCaP (Sigma) cell line, inhibition of cancer cell proliferation, read-out: Prostate cancer EC50 VCaP (Sigma)",< 5.00
same,EC50,"[5]; PA-1, PA1 cell line, read-out: Ovarian cancer, EC50 (μM) PA1",0.767 µM
same,EC50,"[5]; TOV112D, TOV-112D cell line, read-out: Ovarian cancer, EC50 (μM) TOV-112D",1.45 µM
same,EC50,"[5]; OV-90 cell line, read-out: Ovarian cancer, EC50 (μM) OV-90",> 10 µM
same,EC50,"[5]; OVCAR-3 cell line, read-out: Ovarian cancer, EC50 (μM) OVCAR-3",0.436 µM
same,pEC50,CLK3,7.79
same,pEC50,"[6]; BXPC-3, BxPC3 cell line, read-out: Pancreatic cancer, EC50 BxPC3",< 5.00
same,pEC50,"[6]; CAPAN-1, Capan1 cell line, read-out: Pancreatic cancer, EC50 Capan1",5.44
same,pEC50,"[6]; Capan-2, Capan2 cell line, read-out: Pancreatic cancer, EC50 Capan2",< 5.00
same,pEC50,"[6]; MIA PaCa-2 cell line, read-out: Pancreatic cancer, EC50 MIA PaCa-2",6.16
same,pEC50,"[6]; PANC 05.04 cell line, read-out: Pancreatic cancer, EC50 PANC 05.04",< 5.00
same,pEC50,"[6]; PANC-1 cell line, read-out: Pancreatic cancer, EC50 PANC-1",< 5.00
same,pEC50,"[6]; UPAFII cell line, read-out: Pancreatic cancer, EC50 UPAFII",< 5.00
same,EC50,"[7]; A-427, A427 cell line, read-out: Lung cancer, EC50 (μM) A427",1.31 µM
same,EC50,"[7]; HCC78, HCC-78 cell line, read-out: Lung cancer, EC50 (μM) HCC-78",> 10 µM
same,EC50,"[7]; NCI-H460 cell line, read-out: Lung cancer, EC50 (μM) NCI-H460",> 10 µM
same,EC50,"[7]; NCI-H522 cell line, read-out: Lung cancer, EC50 (μM) NCI-H522",0.224 µM

# Source: patent US20220062240A1, “METHODS OF TREATING CANCER USING A CLK INHIBITOR” (BioSplice Therapeutics, Inc., priority 2018, published 2022)
